Results as given in patent publication US6841567B1, “Cyclic substituted fused pyrrolocarbazoles and isoindolones” (Cephalon, Inc., priority 1999, dated 2005).

Legend:
[1] = target: protein kinase C (UBI; mixed isozymes of a, b, g); test: Inhibition of protein kinase C activity (Millipore Multiscreen TCA in-plate assay); format: biochemical
Procedure: Protein kinase C activity was assessed using the Millipore Multiscreen TCA “in-plate” assay as described in Pitt, A. M. and Lee, C. (J. Biomol. Screening, 1: 47-51, 1996). Assays were performed in 96-well Multiscreen-DP plates (Millipore). Each […] assay mixture contained 20 mM Hepes, pH 7.4, 10 mM MgCl2, 2.5 mM EGTA, 2.5 mM CaCl2, […] phosphatidyl serine, […] diolein, […] histone H-1 (Fluka), […] [γ-^32P]ATP, 1.5 ng protein kinase C (UBI; mixed isozymes of a, b, g), 0.1% BSA, 2% DMSO, and test cyclic substituted fused pyrrolocarbazole compound. The reaction was allowed to proceed for 10 min at 37° C., then quenched by adding ice cold 50% trichloroacetic acid. The plates were allowed to equilibrate for 30 min at 4° C., then washed with ice cold 25% TCA. Scintillation cocktail was added to the plates, and the radioactivity was determined using Wallac MicroBeta 1450 PLUS scintillation counter. The IC50 values were calculated by fitting the data to the sigmoidal dose-response (variable slope) equation in GraphPad Prism.

[2] = target: T1, VEGF receptor (human flk-1, KDR, VEGFR2) kinase domain (Homo sapiens, UniProt P35968); test: Inhibition of vascular endothelial growth factor receptor kinase activity (ELISA); format: biochemical; settings: for IC50: 40 μM ATP; for inhibition at 0.3 µM: read-out: VEGF receptor kinase activity % Inh. @ 300 nM (values in parentheses)
T1 construct: VEGF receptor (human flk-1, KDR, VEGFR2) kinase domain; made in house; host or cells: baculovirus expression system
Procedure: Cyclic substituted fused pyrrolocarbazole and isoindolone compounds were examined for their inhibitory effects on the kinase activity of baculovirus-expressed VEGF receptor (human flk-1, KDR, VEGFR2) kinase domain using the procedure described for the trkA kinase ELISA assay described above. The kinase reaction mixture, consisting of 50 mM Hepes, pH 7.4, 40 μM ATP, 10 mM MnCl2, 0.1% BSA, 2% DMSO, and various concentrations of inhibitor, was transferred to PLC-γ/GST-coated plates. VEGFR kinase was added and the reaction was allowed to proceed for 15 min. at 37 C. Detection of phosphorylated product was accomplished by addition of antII-phosphotyrosine antibody (UBI). A secondary enzymeconjugated antibody was delivered to capture the antibody-phosphorylated PLC-γ/GST complex. The activity of the bound enzyme was measured via an amplified detection system (Gibco-BRL). Inhibition data were analyzed using the sigmoidal dose-response (variable slope) equation in GraphPad Prism.

[3] = target: T2, baculovirus-expressed human trkA cytoplasmic domain (Homo sapiens, UniProt P04629); test: Inhibition of trkA tyrosine kinase activity (ELISA-based assay); format: biochemical; settings: for IC50: 40 μM ATP
T2 construct: baculovirus-expressed human trkA cytoplasmic domain; made in house; host or cells: baculovirus expression system
Procedure: Selected cyclic substituted fused pyrrolocarbazole and isoindolone compounds were tested for their ability to inhibit the kinase activity of baculovirus-expressed human trkA cytoplasmic domain using an ELISA-based assay as previously described (Angeles et al., Anal. Biochem. 236: 49-55, 1996). Briefly, the 96-well microtiter plate was coated with substrate solution (recombinant human phospholipase C-γ1/glutathione S-transferase fusion protein (Rotin et al., EMBO J., 11: 559-567, 1992). Inhibition studies were performed in 100 μl assay mixtures containing 50 mM Hepes, pH 7.4, 40 μM ATP, 10 mM MnCl2, 0.1% BSA, 2% DMSO, and various concentrations of inhibitor. The reaction was initiated by addition of trkA kinase and allowed to proceed for 15 minutes at 37° C. An antibody to phosphotyrosine (UBI) was then added, followed by a secondary enzyme-conjugated antibody, alkaline phosphatase-labelled goat antII-mouse IgG (Bio-Rad). The activity of the bound enzyme was measured via an amplified detection system (Gibco-BRL). Inhibition data were analyzed using the sigimoidal dose-response (variable slope) equation in GraphPad Prism.

[4] = target: T3, trkA (NIH3T3 cells transfected with trkA) (Homo sapiens, UniProt P04629); test: Inhibition of NGF-stimulated trk phosphorylation in a whole cell preparation; format: cell-based; parameters: key to Cell Score @ 100 nM (percent decrease in trk protein band): 0=no decrease; 1=1-25%; 2=26-49%; 3=50-75%; 4=76-100%; settings: NGF 10 ng/ml; for Cell Score @ 100 nM (percent decrease in trk protein band): 100 nM compound; for Cell Score @ 1 uM (percent decrease in trk protein band): 1 uM compound
T3 construct: expressed in transfected cells; host or cells: NIH3T3
Procedure: NIH3T3 cells transfected with trkA were grown in 100 mm dishes. Subconfluent cells were serum-starved by replacing media with serum-free 0.05% BSA-DMEM containing compound (100 nM and 1 μM) or DMSO (added to controls) for one hour at 37° C. NGF (Harlan/Bioproducts for Science) was then added to the cells at a concentration of 10 ng/ml for 5 minutes. Cells were lysed in buffer containing detergent and protease inhibitors. Clarified cell lysates were normalized to protein using BCA method and immunoprecipitated with antII-trk antibody. Polyclonal antII-trk antibody was prepared against a peptide corresponding to the 14 amino acids at the carboxy terminus of trk (Martin-Zanca et al., Mol. Cell. Biol. 9: 24-33, 1989). The immune complexes were collected on Protein A Sepharose beads (Sigma Chem. Co., St. Lois, Mo.), separated by SDS polyacrylamide gel electrophoresis (SDS-PAGE), and transferred to a polyvinylidene difluoride (PVDF) membrane. The membrane was immunoblotted with antII-phosphotyrosine antibody (UBI), followed by incubation with horseradish peroxidase coupled goat antII-mouse IgG (Bio-Rad Laboratories, Hercules, Calif.). Phosphorylated proteins were visualized using ECL (Arnersham Life Science, Inc., Arlington Heights, Ill.). The area of the trk protein band was measured and compared to NGF-stimulated control. The inhibition scoring system used, based on percent decrease in trk protein band, was as follows: 0=no decrease; 1=1-25%; 2=26-49%; 3=50-75%; 4=76-100%.

[5] = target: T4, PDGFβ receptor kinase domain (recombinant human PDGFRβ) (Homo sapiens, UniProt P09619); test: Inhibition of platelet derived growth factor receptor kinase activity (ELISA); format: biochemical; settings: for inhibition at 0.3 µM: read-out: PDGFRβ % inh @ 300 nM (values in parentheses)
T4 construct: kinase activity of baculovirus-expressed PDGFβ receptor kinase domain; made in house; host or cells: baculovirus expression system
Procedure: Cyclic substituted fused pyrrolocarbazole and isoindolone compounds were examined for their inhibitory effects on the kinase activity of baculovirus-expressed PDGFβ receptor kinase domain using the trkA kinase ELISA described above. Assays were performed in substrate (PLC-γ/GST)-coated 96-well microtiter plates. Each 100-μl reaction mixture contained 50 mM HEPES, pH 7.4, 20 μM ATP, 10 mM MnCl2, 0.1% BSA, 2% DMSO, and various concentrations of inhibitor. The reaction was initiated by addition of prephosphorylated recombinant human enzyme (10 ng/ml PDGFRβ) and allowed to proceed for 15 minutes at 37° C. The prephosphorylated enzyme was prepared prior to use by incubation of the kinase in buffer containing 20 μM ATP and 10 mM MnCl2 for 1 hour at 4° C. Detection of phosphorylated product was done by adding horseradish peroxidase (HRP)-conjugated antII-phosphotyrosine antibody (UBI). The HRP substrate solution containing 3,3′-5,5′-tetramethylbenzidine and hydrogen peroxide was later added and the plates were incubated for 10 minutes at room temperature. The reaction was quenched with acid and the resulting absorbance was read at 450 nm using a Microplate Bio-kinetics Reader (Bio-Tek Instrument EL 312e). Inhibition data were analyzed using the sigmoidal dose-response (variable slope) equation in GraphPad Prism.

T3 sequence (P04629 33-796, species assumed): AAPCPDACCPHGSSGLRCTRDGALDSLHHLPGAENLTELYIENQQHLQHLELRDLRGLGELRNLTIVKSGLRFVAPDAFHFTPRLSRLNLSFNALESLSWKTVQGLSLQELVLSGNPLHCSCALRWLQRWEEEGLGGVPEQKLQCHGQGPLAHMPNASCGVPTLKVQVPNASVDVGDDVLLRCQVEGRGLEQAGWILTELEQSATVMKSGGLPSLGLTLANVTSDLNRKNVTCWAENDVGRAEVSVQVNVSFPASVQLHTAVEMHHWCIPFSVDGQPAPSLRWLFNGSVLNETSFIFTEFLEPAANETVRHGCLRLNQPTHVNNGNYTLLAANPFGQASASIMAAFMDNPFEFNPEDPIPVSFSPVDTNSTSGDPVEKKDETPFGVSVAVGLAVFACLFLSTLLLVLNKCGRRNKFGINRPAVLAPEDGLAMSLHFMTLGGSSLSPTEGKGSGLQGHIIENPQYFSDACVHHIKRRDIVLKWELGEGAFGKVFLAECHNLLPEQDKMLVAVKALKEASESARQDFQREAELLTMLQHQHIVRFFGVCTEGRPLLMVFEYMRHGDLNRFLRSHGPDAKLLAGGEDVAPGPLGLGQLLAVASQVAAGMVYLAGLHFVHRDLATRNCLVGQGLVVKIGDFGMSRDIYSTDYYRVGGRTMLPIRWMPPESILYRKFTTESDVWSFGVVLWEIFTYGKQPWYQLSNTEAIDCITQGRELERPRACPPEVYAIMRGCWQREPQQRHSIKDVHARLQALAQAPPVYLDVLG
T4 sequence (P09619 600-962 limits assumed): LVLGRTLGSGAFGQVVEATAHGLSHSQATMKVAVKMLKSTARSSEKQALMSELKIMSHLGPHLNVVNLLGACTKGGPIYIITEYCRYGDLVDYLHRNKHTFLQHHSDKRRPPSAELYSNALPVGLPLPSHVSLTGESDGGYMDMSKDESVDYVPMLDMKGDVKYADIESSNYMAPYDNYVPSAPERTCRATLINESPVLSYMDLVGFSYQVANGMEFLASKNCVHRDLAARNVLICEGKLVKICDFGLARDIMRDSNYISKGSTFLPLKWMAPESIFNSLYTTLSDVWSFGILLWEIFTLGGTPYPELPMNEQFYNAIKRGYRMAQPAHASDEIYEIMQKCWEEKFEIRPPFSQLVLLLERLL
T2 sequence (P04629 440-796 limits assumed): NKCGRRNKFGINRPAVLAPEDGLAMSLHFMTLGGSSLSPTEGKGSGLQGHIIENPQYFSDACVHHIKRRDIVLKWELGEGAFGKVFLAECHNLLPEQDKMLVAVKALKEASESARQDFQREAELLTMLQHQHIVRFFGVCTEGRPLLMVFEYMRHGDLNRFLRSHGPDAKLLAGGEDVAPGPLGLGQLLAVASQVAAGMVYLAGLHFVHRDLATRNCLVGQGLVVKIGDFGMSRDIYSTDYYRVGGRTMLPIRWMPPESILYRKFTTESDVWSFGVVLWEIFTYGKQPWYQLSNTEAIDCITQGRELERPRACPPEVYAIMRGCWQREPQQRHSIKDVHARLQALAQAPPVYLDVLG
T1 sequence (P35968 834-1162 limits assumed): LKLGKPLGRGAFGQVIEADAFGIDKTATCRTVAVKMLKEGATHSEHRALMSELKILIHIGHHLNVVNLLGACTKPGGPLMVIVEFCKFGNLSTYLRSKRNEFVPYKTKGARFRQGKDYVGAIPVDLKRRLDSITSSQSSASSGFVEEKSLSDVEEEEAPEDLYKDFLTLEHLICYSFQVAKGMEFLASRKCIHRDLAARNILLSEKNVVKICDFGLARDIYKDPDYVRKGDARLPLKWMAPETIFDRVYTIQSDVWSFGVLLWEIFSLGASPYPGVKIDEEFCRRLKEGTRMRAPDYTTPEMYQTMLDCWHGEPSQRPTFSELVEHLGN

Row | IC50 [1] [nM] | IC50 [2] [nM] | IC50 [3] [nM] | Cell Score @ 100 nM (percent decrease in trk protein band) [4] | Cell Score @ 1 uM (percent decrease in trk protein band) [4] | inhibition at 0.3 µM ([5]; 300 nM compound) [%] | inhibition at 0.3 µM ([2]; 300 nM compound) [%] | Compound | also measured
1 |  |  | 555 |  |  | 23 | 65 | COC(=O)[C@H]1CSC(CCn2c3ccccc3c3c4c(c5c(c32)Cc2ccccc2-5)C(=O)NC4)N1 (stereo partly shown) [II-67] | 
2 |  |  | 245 |  |  | 0 | 31 | CCNC(=O)OCC1(C2c3ccccc3-c3c4c(c5c6ccccc6n(C(=O)NCC)c5c32)CNC4=O)CCCO1 (stereo not shown) [II-68] | 
3 |  |  | 320 |  |  | 5 | 26 | O=C1NCc2c1c1c(c3c2c2ccccc2n3CC2CC2)C(CC2CC2)c2ccccc2-1 (stereo not shown) [II-65] | Protein kinase C activity, values in parentheses ([1]; concentration not given): (20)
4 |  |  | 399 |  |  | 29 | 20 | CC1C=CC(C(O)C2c3ccccc3-c3c4c(c5c([nH]c6ccccc65)c32)CNC4=O)n2c(=O)n(-c3ccccc3)c(=O)n21 (stereo not shown) [II-64] | 
5 |  |  | 24 |  |  | 18 | 49 | CCNC(=O)n1c2ccccc2c2c3c(c4c(c21)C(C1(CO)CCCO1)c1ccccc1-4)C(=O)NC3 (stereo not shown) [II-69] | 
6 | 2200 | 209 | 8 | 4 (4=76-100%) | 4 (4=76-100%) |  |  | COc1ccc2c(c1)C(C1(CO)CCCO1)c1c-2c2c(c3c1[nH]c1ccccc13)CNC2=O (stereo not shown) [II-53] | 

Second part, the compound before the results:

Row | Compound | IC50 [1] [nM] | IC50 [2] [nM] | IC50 [3] [nM] | Cell Score @ 100 nM (percent decrease in trk protein band) [4] | Cell Score @ 1 uM (percent decrease in trk protein band) [4] | inhibition at 0.3 µM ([5]; 300 nM compound) [%] | inhibition at 0.3 µM ([2]; 300 nM compound) [%] | also measured
7 | O=C1NCc2c1c1c(c3[nH]c4ccccc4c23)C(C2(O)CCCO2)c2ccccc2-1 (stereo not shown) [II-42] | 6230 | 1390 | 149 |  |  |  |  | 
8 | O=C1NCc2c1c1c(c3[nH]c4ccccc4c23)C(C2(CO)CCCO2)c2ccccc2-1 (single isomer, unassigned) [II-36] | > 10000 | 846 | 20 | 1 (1=1-25%) | 4 (4=76-100%) |  |  | 
9 | O=C1NCc2c1c1c(c3[nH]c4ccccc4c23)C(C2CCC(O)O2)c2ccccc2-1 (single isomer, unassigned) [II-38] | > 10000 | 5100 | 405 | 2 (2=26-49%) | 2 (2=26-49%) |  |  | 
10 | O=C1NCc2c1c1c(c3[nH]c4ccccc4c23)C(C2(O)CCCC2CN2CCOCC2)c2ccccc2-1 (mixture of isomers) [II-17] |  |  |  |  |  |  |  | PDGFRβ % inh @ 300 nM (values in parentheses) ([5]; 300 nM compound): (47) %; VEGF receptor kinase activity % Inh. @ 300 nM (values in parentheses) ([2]; 300 nM compound): (33) %; trkA kinase activity % Inh. @ 300 nM (values in parentheses) ([3]; 300 nM compound): (33) %
11 | COCCOC(=O)c1ccc2[nH]c3c4c(c5c(c3c2c1)CNC5=O)-c1ccccc1C4C1CCC(OCCOC)O1 (stereo not shown) [II-52] |  |  | 27 | 2 (2=26-49%) | 3 (3=50-75%) | 45 |  | 
12 | CC1(C)COC(=O)C1(O)C1c2ccccc2-c2c3c(c4c([nH]c5ccccc54)c21)CNC3=O (stereo not shown) [II-47] | 1530 |  | 44 | 1 (1=1-25%) | 3 (3=50-75%) |  |  | 
13 | O=C1NCc2c1c1c(c3[nH]c4ccccc4c23)C(C2CCC(O)O2)c2ccccc2-1 (racemic) [II-23] | 644 | 79 | 19 | 2 (2=26-49%) | 4 (4=76-100%) |  |  | IC50 ([5]; 20 μM ATP): 648 nM
14 | CC1(C2c3ccccc3-c3c4c(c5c([nH]c6ccccc65)c32)CNC4=O)CC(O)(CO)CO1 (stereo not shown) [II-26] | 2070 |  | 45 | 2 (2=26-49%) | 4 (4=76-100%) |  | 48 | 
15 | O=C1NCc2c1c1c(c3[nH]c4ccccc4c23)C(C2(CO)CCCO2)c2ccccc2-1 (single isomer, unassigned) [II-35] | > 10000 |  | 78 | 0 | 3 (3=50-75%) |  | 55 | 
